Test results published in PubChem BioAssay (NCI).
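Test compounds were applied to cells in 96-well plates for 48 hours at 5 doses. The concentration for 50% growth inhibition is given as GI50. TGI is the concentration that stops growth completely.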

Assays:
Assay in all cases: DTP human tumour cell line panel, 48 h
UACC-62 melanoma = test system: UACC-62 melanoma
NCI-H226 lung = test system: NCI-H226 lung
SNB-75 CNS = test system: SNB-75 CNS
MALME-3M melanoma = test system: MALME-3M melanoma
SNB-19 CNS = test system: SNB-19 CNS
HL-60(TB) leukemia = test system: HL-60(TB) leukemia
MDA-MB-435 = test system: MDA-MB-435
SK-OV-3 ovarian = test system: SK-OV-3 ovarian
UO-31 renal = test system: UO-31 renal
OVCAR-4 ovarian = test system: OVCAR-4 ovarian
NCI-H460 lung = test system: NCI-H460 lung
RXF 393 renal = test system: RXF 393 renal
OVCAR-8 ovarian = test system: OVCAR-8 ovarian
PC-3 prostate = test system: PC-3 prostate
A549 NSCLC = test system: A549 NSCLC
SF-268 CNS = test system: SF-268 CNS
MDA-MB-231 breast = test system: MDA-MB-231 breast
TK-10 renal = test system: TK-10 renal
SF-295 CNS = test system: SF-295 CNS
HOP-92 NSCLC = test system: HOP-92 NSCLC
COLO 205 colon = test system: COLO 205 colon
T-47D breast = test system: T-47D breast
786-0 renal = test system: 786-0 renal
HS 578T breast = test system: HS 578T breast
BT-549 breast = test system: BT-549 breast
M14 melanoma = test system: M14 melanoma
SF-539 CNS = test system: SF-539 CNS
HT29 colon = test system: HT29 colon
HOP-62 NSCLC = test system: HOP-62 NSCLC
SR leukemia = test system: SR leukemia
NCI-H23 lung = test system: NCI-H23 lung
HCC-2998 colon = test system: HCC-2998 colon
ACHN renal = test system: ACHN renal
SK-MEL-28 melanoma = test system: SK-MEL-28 melanoma
MCF7 breast = test system: MCF7 breast
HCT-15 colon = test system: HCT-15 colon
OVCAR-5 ovarian = test system: OVCAR-5 ovarian
A498 renal = test system: A498 renal
NCI-H522 lung = test system: NCI-H522 lung
CAKI-1 renal = test system: CAKI-1 renal
U251 CNS = test system: U251 CNS
LOX IMVI melanoma = test system: LOX IMVI melanoma
SK-MEL-5 melanoma = test system: SK-MEL-5 melanoma
NCI/ADR-RES ovarian = test system: NCI/ADR-RES ovarian
UACC-257 melanoma = test system: UACC-257 melanoma
IGROV1 ovarian = test system: IGROV1 ovarian
K-562 leukemia = test system: K-562 leukemia
CCRF-CEM leukemia = test system: CCRF-CEM leukemia
RPMI-8226 leukemia = test system: RPMI-8226 leukemia
OVCAR-3 ovarian = test system: OVCAR-3 ovarian
DU-145 prostate = test system: DU-145 prostate
SK-MEL-2 melanoma = test system: SK-MEL-2 melanoma
SN12C renal = test system: SN12C renal
MOLT-4 leukemia = test system: MOLT-4 leukemia
SW-620 colon = test system: SW-620 colon
KM12 colon = test system: KM12 colon
HCT-116 colon = test system: HCT-116 colon

## Cn1cc(C2=C(c3cn(C)c4ccc(OCc5ccccc5)cc34)C(=O)NC2=O)c2ccccc21
UACC-62 melanoma
  GI50: > 25 µM
  TGI: > 25 µM
NCI-H226 lung
  GI50: > 25 µM
  TGI: > 25 µM
SNB-75 CNS
  GI50: > 25 µM
  TGI: > 25 µM
MALME-3M melanoma
  GI50: > 25 µM
  TGI: > 25 µM
SNB-19 CNS
  GI50: > 25 µM
  TGI: > 25 µM
HL-60(TB) leukemia
  GI50: > 25 µM
  TGI: > 25 µM
MDA-MB-435
  GI50: > 25 µM
  TGI: > 25 µM
SK-OV-3 ovarian
  GI50: > 25 µM
  TGI: > 25 µM
UO-31 renal
  GI50: > 25 µM
  TGI: > 25 µM
OVCAR-4 ovarian
  GI50: > 16.9 µM
  TGI: > 25 µM
NCI-H460 lung
  GI50: > 25 µM
  TGI: > 25 µM
RXF 393 renal
  GI50: > 25 µM
  TGI: > 25 µM
OVCAR-8 ovarian
  GI50: > 25 µM
  TGI: > 25 µM
PC-3 prostate
  GI50: > 25 µM
  TGI: > 25 µM
A549 NSCLC
  GI50: > 25 µM
  TGI: > 25 µM
SF-268 CNS
  GI50: > 25 µM
  TGI: > 25 µM
MDA-MB-231 breast
  GI50: > 25 µM
  TGI: > 25 µM
TK-10 renal
  GI50: > 25 µM
  TGI: > 25 µM
SF-295 CNS
  GI50: > 25 µM
  TGI: > 25 µM
HOP-92 NSCLC
  GI50: > 25 µM
  TGI: > 25 µM
COLO 205 colon
  GI50: > 25 µM
  TGI: > 25 µM
T-47D breast
  GI50: > 25 µM
  TGI: > 25 µM
786-0 renal
  GI50: > 25 µM
  TGI: > 25 µM
HS 578T breast
  GI50: > 21.2 µM
  TGI: > 25 µM
BT-549 breast
  GI50: > 25 µM
  TGI: > 25 µM
M14 melanoma
  GI50: > 25 µM
  TGI: > 25 µM
SF-539 CNS
  GI50: > 25 µM
  TGI: > 25 µM
HT29 colon
  GI50: > 25 µM
  TGI: > 25 µM
HOP-62 NSCLC
  GI50: > 25 µM
  TGI: > 25 µM
SR leukemia
  GI50: > 25 µM
  TGI: > 25 µM
NCI-H23 lung
  GI50: > 25 µM
  TGI: > 25 µM
HCC-2998 colon
  GI50: > 25 µM
  TGI: > 25 µM
ACHN renal
  GI50: > 25 µM
  TGI: > 25 µM
SK-MEL-28 melanoma
  GI50: > 25 µM
  TGI: > 25 µM
MCF7 breast
  GI50: > 25 µM
  TGI: > 25 µM
HCT-15 colon
  GI50: > 25 µM
  TGI: > 25 µM
OVCAR-5 ovarian
  GI50: > 25 µM
  TGI: > 25 µM
A498 renal
  GI50: > 25 µM
  TGI: > 25 µM
NCI-H522 lung
  GI50: > 25 µM
  TGI: > 25 µM
CAKI-1 renal
  GI50: > 25 µM
  TGI: > 25 µM
U251 CNS
  GI50: > 25 µM
  TGI: > 25 µM
LOX IMVI melanoma
  GI50: > 25 µM
  TGI: > 25 µM
SK-MEL-5 melanoma
  GI50: > 25 µM
  TGI: > 25 µM
NCI/ADR-RES ovarian
  GI50: > 25 µM
  TGI: > 25 µM
UACC-257 melanoma
  GI50: > 25 µM
  TGI: > 25 µM
IGROV1 ovarian
  GI50: > 25 µM
  TGI: > 25 µM
K-562 leukemia
  GI50: > 25 µM
  TGI: > 25 µM
CCRF-CEM leukemia
  GI50: > 25 µM
  TGI: > 25 µM
RPMI-8226 leukemia
  GI50: > 25 µM
  TGI: > 25 µM
OVCAR-3 ovarian
  GI50: > 25 µM
  TGI: > 25 µM
DU-145 prostate
  GI50: > 25 µM
  TGI: > 25 µM
SK-MEL-2 melanoma
  GI50: > 25 µM
  TGI: > 25 µM
SN12C renal
  GI50: > 25 µM
  TGI: > 25 µM
MOLT-4 leukemia
  GI50: > 25 µM
  TGI: > 25 µM
SW-620 colon
  GI50: > 25 µM
  TGI: > 25 µM
KM12 colon
  GI50: > 25 µM
  TGI: > 25 µM
HCT-116 colon
  GI50: > 25 µM
  TGI: > 25 µM
